These compounds were tested against T1, Calpain I (Homo sapiens, UniProt P07384) (assay: Inhibition of calpain I activity (Succ-Leu-Tyr-MNA substrate hydrolysis, fluorescence)). Conditions: Table II; calpain I, 0.2 mM Succ-Leu-Tyr-MNA, pH 7.5; * mixture of diastereomers, a,b single diastereomers; read-out: IC50.
T1 construct: made in house
T1 sequence (P07384 1-714): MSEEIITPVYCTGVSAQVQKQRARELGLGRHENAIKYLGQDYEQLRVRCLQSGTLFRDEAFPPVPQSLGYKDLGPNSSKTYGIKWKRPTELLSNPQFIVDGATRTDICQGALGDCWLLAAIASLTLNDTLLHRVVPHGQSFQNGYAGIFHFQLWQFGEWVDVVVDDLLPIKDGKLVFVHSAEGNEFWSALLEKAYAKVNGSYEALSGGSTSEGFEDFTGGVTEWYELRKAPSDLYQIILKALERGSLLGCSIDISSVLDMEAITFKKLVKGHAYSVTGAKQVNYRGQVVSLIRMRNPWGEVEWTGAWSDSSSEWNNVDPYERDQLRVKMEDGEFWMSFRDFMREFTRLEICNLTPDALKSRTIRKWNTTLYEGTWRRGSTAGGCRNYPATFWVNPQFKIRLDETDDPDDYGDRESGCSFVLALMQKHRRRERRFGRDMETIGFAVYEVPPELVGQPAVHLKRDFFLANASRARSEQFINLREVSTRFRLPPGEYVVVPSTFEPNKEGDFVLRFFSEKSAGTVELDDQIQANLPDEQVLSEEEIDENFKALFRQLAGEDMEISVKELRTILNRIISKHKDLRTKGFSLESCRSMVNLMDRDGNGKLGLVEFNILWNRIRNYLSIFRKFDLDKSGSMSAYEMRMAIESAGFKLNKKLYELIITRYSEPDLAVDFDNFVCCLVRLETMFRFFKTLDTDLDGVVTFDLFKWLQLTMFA
T1 sequence (P04632 1-268 partner): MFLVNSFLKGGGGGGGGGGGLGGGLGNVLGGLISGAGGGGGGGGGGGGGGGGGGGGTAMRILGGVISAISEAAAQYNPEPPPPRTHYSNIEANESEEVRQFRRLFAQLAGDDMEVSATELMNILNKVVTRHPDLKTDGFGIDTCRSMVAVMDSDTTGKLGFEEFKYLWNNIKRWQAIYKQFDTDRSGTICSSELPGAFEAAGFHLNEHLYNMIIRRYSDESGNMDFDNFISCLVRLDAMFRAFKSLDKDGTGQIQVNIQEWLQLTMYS
Format: biochemical
Protocol: To evaluate inhibitory activity, stock solutions (40 times concentrated) of each compound to be tested were prepared in 100% anhydrous DMSO and […] of each inhibitor preparation were aliquoted into each of three wells of a 96-well plate. Calpain I, prepared by a modification of the method of W. J. Lee et al. (Biochem. […] To start the reaction, […] of 50 mM CaCl2 in assay buffer was added to each of the wells of the plate, excepting three, which were used as background signal baseline controls. Substrate hydrolysis was monitored every 5 minutes for a total of 30 minutes using a Fluoroskan II fluorescence plate reader. […] Inhibition of calpain I activity was calculated as the percent decrease in the rate of substrate hydrolysis in the presence of inhibitor relative to the rate in its absence. Comparison between the inhibited and control rates was made within the linear range for substrate hydrolysis. For screening, compounds were tested at […]. […] The results were plotted as percent inhibition versus log inhibitor concentration, and the IC50 was calculated from linear regression of the data.

| SMILES | IC50 |
| --- | --- |
| CN1C(C(=O)N[C@H](C=O)Cc2ccccc2)Cc2cc(N3CCOCC3)ccc2S1(=O)=O (stereo partly drawn) [Cpd 12aa, N-(3,4-Dihydro-6-(4-morpholino)-2-methyl-2H-1,2-benzothiazine-3-carbonyl)-L-phenylalaninal 1,1-dioxide] | 30 nM |
| CN1C(C(=O)N[C@H](C=O)Cc2ccccc2)Cc2ccccc2S1(=O)=O (stereo partly drawn) [Cpd 12i, N-(3,4-Dihydro-2-methyl-2H-1,2-benzothiazine-3-carbonyl)-L-phenylalaninal 1,1-dioxide] | 28 nM |
| CN1C(C(=O)N[C@H](C=O)Cc2ccccc2)Cc2ccccc2S1(=O)=O (stereo partly drawn) [Cpd 12j, N-(3,4-Dihydro-2-methyl-2H-1,2-benzothiazine-3-carbonyl)-L-phenylalaninal 1,1-dioxide] | 110 nM |
| CN1C(C(=O)N[C@H](C=O)CCCCNS(=O)(=O)c2ccccc2)Cc2cc3c(cc2S1(=O)=O)OCCO3 (stereo partly drawn) [Cpd 12x, Nα -(3,4-Dihydro-6,7-ethylenedioxy-2-methyl-2H-1,2-benzothiazine-3-carbonyl)-L-Nε -(benzenesulfonyl)lysinal 1,1-dioxide] | 36 nM |
| CN1C(C(=O)N[C@H](C=O)CCCCNS(=O)(=O)c2ccccc2)Cc2cc3c(cc2S1(=O)=O)OCCO3 (stereo partly drawn) [Cpd 12y, Nα -(3,4-Dihydro-6,7-ethylenedioxy-2-methyl-2H-1,2-benzothiazine-3-carbonyl)-L-Nε -(benzenesulfonyl)lysinal 1,1-dioxide] | 107 nM |
| CN1C(C(=O)N[C@H](C=O)Cc2ccccc2)Cc2cc(N3CCOCC3)ccc2S1(=O)=O (stereo partly drawn) [Cpd 12z, N-(3,4-Dihydro-6-(4-morpholino)-2-methyl-2H-1,2-benzothiazine-3-carbonyl)-L-phenylalaninal 1,1-dioxide] | ~500 nM |

The remaining lines, values ahead:

| IC50 | SMILES |
| --- | --- |
| ~800 nM | COc1cc2c(cc1OC)S(=O)(=O)NC(C(=O)N[C@H](C=O)Cc1ccccc1)C2 (single isomer, unassigned) [Cpd 12c, N-(3,4-Dihydro-6,7-dimethoxy-2H-1,2-benzothiazine-3-carbonyl)-L-phenylalaninal 1,1-dioxide] |
| ~700 nM | COc1cc2c(cc1OC)S(=O)(=O)NC(C(=O)N[C@H](C=O)Cc1ccccc1)C2 (single isomer, unassigned) [Cpd 12d, N-(3,4-Dihydro-6,7-dimethoxy-2H-1,2-benzothiazine-3-carbonyl)-L-phenylalaninal 1,1-dioxide] |
| 130 nM | COc1cc2c(cc1OC)S(=O)(=O)OC(C(=O)N[C@H](C=O)CC(C)C)C2 (stereo partly drawn) [Cpd 12a, N-(3,4-Dihydro-6,7-dimethoxy-2,1-benzoxathiin-3-carbonyl)-L-leucinal 1,1-dioxide] |
| 51 nM | COc1cc2c(cc1OC)S(=O)(=O)OC(C(=O)N[C@H](C=O)Cc1ccccc1)C2 (stereo partly drawn) [Cpd 12b, N-(3,4-Dihydro-6,7-dimethoxy-2,1-benzoxathiin-3-carbonyl)-L-phenylalaninal 1,1-dioxide] |
| 200 nM | COc1cc2c(cc1OC)S(=O)(=O)N(C)C(C(=O)N[C@H](C=O)Cc1ccccc1)C2 (stereo partly drawn) [Cpd 12e, N-(3,4-Dihydro-6,7-dimethoxy-2-methyl-2H-1,2-benzothiazine-3-carbonyl)-L-phenylalaninal 1,1-dioxide] |
| 38 nM | COc1cc2c(cc1OC)S(=O)(=O)N(C)C(C(=O)N[C@H](C=O)Cc1ccccc1)C2 (stereo partly drawn) [Cpd 12f, N-(3,4-Dihydro-6,7-dimethoxy-2-methyl-2H-1,2-benzothiazine-3-carbonyl)-L-phenylalaninal 1,1-dioxide] |
| ~1000 nM | COc1cc2c(cc1OC)S(=O)(=O)N(Cc1ccccc1)C(C(=O)N[C@H](C=O)Cc1ccccc1)C2 (stereo partly drawn) [Cpd 12g, N-(2-Benzyl-3,4-dihydro-6,7-dimnethoxy-2H-1,2-benzothiazine-3-carbonyl)-L-phenylalaninal 1,1-dioxide] |
| 150 nM | COc1cc2c(cc1OC)S(=O)(=O)N(Cc1ccccc1)C(C(=O)N[C@H](C=O)Cc1ccccc1)C2 (stereo partly drawn) [Cpd 12h, N-(2-Benzyl-3,4-dihydro-6,7-dimethoxy-2H-1,2-benzothiazine-3-carbonyl)-L-phenylalaninal 1,1-dioxide] |
| ~200 nM | CC(C)CN1C(C(=O)N[C@H](C=O)Cc2ccccc2)Cc2cc(Cl)ccc2S1(=O)=O (stereo partly drawn) [Cpd 12n, N-(3,4-Dihydro-6-chloro-2-isobutyl-2H-1,2-benzothiazine-3-carbonyl)-L-phenylalaninal 1,1-dioxide] |
| 5 nM | CN1C(C(=O)N[C@H](C=O)Cc2ccccc2)Cc2cc(Cl)ccc2S1(=O)=O (stereo partly drawn) [Cpd 12p, N-(6-Chloro-3,4-dihydro-2-methyl-2H-1,2-benzothiazine-3-carbonyl)-L-phenylalaninal 1,1-dioxide] |
| 15 nM | CN1C(C(=O)N[C@H](C=O)Cc2ccccc2)Cc2cc(Cl)ccc2S1(=O)=O (stereo partly drawn) [Cpd 12q, N-(6-Chloro-3,4-dihydro-2-methyl-2H-1,2-benzothiazine-3-carbonyl)-L-phenylalaninal 1,1-dioxide] |
| 24 nM | CN1C(C(=O)N[C@H](C=O)Cc2ccccc2)Cc2cc3c(cc2S1(=O)=O)OCCO3 (stereo partly drawn) [Cpd 12r, N-(3,4-Dihydro-6,7-ethylenedioxy-2-methyl-2H-1,2-benzothiazine-3-carbonyl)-L-phenylalaninal 1,1-dioxide] |
| 30 nM | CC(C)N1C(C(=O)N[C@H](C=O)Cc2ccccc2)Cc2cc3c(cc2S1(=O)=O)OCCO3 (stereo partly drawn) [Cpd 12u, N-(3,4-Dihydro-6,7-ethylenedioxy-2-isopropyl-2H-1,2-benzothiazine-3-carbonyl)-L-phenylalaninal 1,1-dioxide] |

Same assay, conditions: Table V; calpain I, 0.2 mM Succ-Leu-Tyr-MNA, pH 7.5; * mixture of diastereomers, a,b single diastereomers; read-out: IC50

| IC50 | SMILES |
| --- | --- |
| ~1000 nM | CCCN1c2ccccc2S(=O)(=O)N(CC)C1C(=O)N[C@H](C=O)Cc1ccccc1 (single isomer, unassigned) [Cpd 35a, N-(3,4-Dihydro-2-ethyl-4-propyl-2H-1,2,4-benzothiadiazine-3-carbonyl)-L-phenylalaninal 1,1-dioxide] |
| ~3000 nM | CCCN1c2ccccc2S(=O)(=O)N(CC)C1C(=O)N[C@H](C=O)Cc1ccccc1 (single isomer, unassigned) [Cpd 35b, N-(3,4-Dihydro-2-ethyl-4-propyl-2H-1,2,4-benzothiadiazine-3-carbonyl)-L-phenylalaninal 1,1-dioxide] |
| ~10000 nM | CCN1C(C(=O)N[C@H](C=O)Cc2ccccc2)N(Cc2ccccc2)c2ccccc2S1(=O)=O (single isomer, unassigned) [Cpd 35c, N-(3,4-Dihydro-2-ethyl-4-benzyl-2H-1,2,4-benzothiadiazine-3-carbonyl)-L-phenylalaninal 1,1-dioxide] |
| ~1000 nM | CCN1C(C(=O)N[C@H](C=O)Cc2ccccc2)N(Cc2ccccc2)c2ccccc2S1(=O)=O (single isomer, unassigned) [Cpd 35d, N-(3,4-Dihydro-2-ethyl-4-benzyl-2H-1,2,4-benzothiadiazine-3-carbonyl)-L-phenylalaninal 1,1-dioxide] |

Same assay, conditions: Table VII; calpain I, 0.2 mM Succ-Leu-Tyr-MNA, pH 7.5; a,b single diastereomers; read-out: IC50

| IC50 | SMILES |
| --- | --- |
| ~5000 nM | O=C[C@H](Cc1ccccc1)NC(=O)C1Cc2ccccc2C(=O)N1 (single isomer, unassigned) [Cpd 50a, N-(1-Oxo-1,2,3,4-tetrahydroisoquinoline-3-carbonyl)-L-phenylalaninal] |
| ~5000 nM | O=C[C@H](Cc1ccccc1)NC(=O)C1Cc2ccccc2C(=O)N1 (single isomer, unassigned) [Cpd 50b, N-(1-Oxo-1,2,3,4-tetrahydroisoquinoline-3-carbonyl)-L-phenylalaninal] |
| ~1000 nM | CN1C(=O)c2ccccc2CC1C(=O)N[C@H](C=O)Cc1ccccc1 (single isomer, unassigned) [Cpd 50c, N-(1-Oxo-2-methyl-1,2,3,4-tetrahydroisoquinoline-3-carbonyl)-L-phenylalaninal] |
